Measurements reported in US20240299378A1, “EMULSION FOR USE IN THE TREATMENT OF ROSACEA” (EXINOV, priority 2021, published 2024).

System: cell proliferation in the local lymph nodes
Assay: mouse Local Lymph Node Assay (LLNA), 3HTdR incorporation
Details: topical on ears days 1-3; Em-A 100% (w/v) in AOO; HCA 25% (w/v) in AOO
Excerpt: Preliminary tests: Based on the results of the Preliminary Compatibility Test, the tested emulsions characteristics (e.g., when the emulsion is a dense cream), its use and following the Organisation for Economic Co-operation and Development (OECD) Guidelines, the best vehicle for the tested emulsions was considered as AOO (acetone:olive oil 4:1 (v/v) mixture). The tested emulsions at 100% (w/v) were suitable for the test using AOO as vehicle. […] Based on the observations recorded in this test, the 100% (w/v) in AOO dose was selected as top dose for the main test. […] Tested emulsions were applied on the dorsal surface of ears of experimental animals (25 μL/ear using positive displacement pipette) for three consecutive days (days 1, 2 and 3). There was no treatment on days 4, 5 and 6. The cell proliferation in the local lymph nodes was assessed by measuring the incorporation of tritiated methyl thymidine (3HTdR) and the values obtained were used to calculate stimulation indices (SI) in comparison with the control group.

CCCCCCC(C=O)=Cc1ccccc1 [HCA, α-hexylcinnamaldehyde]
stimulation index (SI): 12.7
